SMILES strings stand for the structures.

The compound `COc1ccc(CNC(=O)c2c[nH]c3c(c2=O)CCCC3)cc1` yielded a melting point of 241 to 244 °C. The figure for `O=C(Nc1cccc(F)c1)c1c[nH]c2c(c1=O)CCCC2` is 319 to 320 °C.

`O=C(NCc1ccccc1F)c1c[nH]c2c(c1=O)CCC2` yielded a melting point of 259 to 261 °C.

For `COc1ccc(CNC(=O)c2c[nH]c3c(c2=O)CCCCC3)cc1`, the melting point fell in the range of 203 to 205 °C.

Regarding `O=C(Nc1cccc(F)c1)c1c[nH]c2c(c1=O)CCC2`, the melting point was 340 °C (dec.). The compound `O=C(Nc1ccccc1Cl)c1c[nH]c2c(c1=O)CCCC2` yielded a melting point of 339 to 341 °C. `O=C(Nc1c(F)cccc1F)c1c[nH]c2c(c1=O)CCCC2` came in with a melting point of 278 to 280 °C. The figure for `O=C(Nc1cccs1)c1c[nH]c2c(c1=O)CCC2` is 210 °C (dec.). The figure for `O=C(Nc1nccs1)c1c[nH]c2c(c1=O)CCCC2` is 260 °C (dec.); for `CCOc1ccc(CNC(=O)c2c[nH]c3c(c2=O)CCCC3)c(F)c1` it is 178 to 181 °C; for `O=C(NCc1ccccc1)c1c[nH]c2c(c1=O)CCCC2` it is 257 to 259 °C. The figure for `COc1ccc(CNC(=O)c2c[nH]c3c(c2=O)CCCC3)c(F)c1` is 257 to 259 °C; for `CCOc1ccc(CNC(=O)c2c[nH]c3c(c2=O)CCC3)c(F)c1` it is 217 to 219 °C. For the compound `CCCOc1ccc(CNC(=O)c2c[nH]c3c(c2=O)CCC3)c(F)c1`, the melting point was in the range of 209 to 211 °C. Consider `O=C(Nc1nccs1)c1c[nH]c2c(c1=O)CCCCC2`, for which the melting point was 301 °C (dec.).

Turning to `O=C(Nc1ccc(F)cc1)c1c[nH]c2c(c1=O)CCCC2`, the melting point lay within 324 to 326 °C. The figure for `COc1ccc(CNC(=O)c2c[nH]c3c(c2=O)CCC3)cc1` is 240 to 241 °C. The figure for `COc1ccccc1CNC(=O)c1c[nH]c2c(c1=O)CCC2` is 243 to 244 °C. The figure for `O=C(NCc1ccc(Cl)cc1)c1c[nH]c2c(c1=O)CCCC2` is 283 to 285 °C. `COc1ccc(NC(=O)c2c[nH]c3c(c2=O)CCC3)cc1` gave a melting point of 330 to 332 °C.

Take `COc1ccnc(NC(=O)c2c[nH]c3c(c2=O)CCCC3)c1`: the melting point is 312 °C (dec.). The figure for `Cc1ccc(CNC(=O)c2c[nH]c3c(c2=O)CCCC3)cc1` is 270 to 273 °C; for `O=C(Nc1ccccc1F)c1c[nH]c2c(c1=O)CCC2` it is 330 °C (dec.). In the case of `Cc1csc(NC(=O)c2c[nH]c3c(c2=O)CCC3)n1`, the melting point lay within 304 to 305 °C. Turning to `O=C(NCc1c(F)cccc1F)c1c[nH]c2c(c1=O)CCC2`, the melting point is 294 to 295 °C. For the compound `CC(C)Oc1ccc(CNC(=O)c2c[nH]c3c(c2=O)CCCC3)c(F)c1`, the melting point lay within 197 to 200 °C.

For the compound `COc1ccc(NC(=O)c2c[nH]c3c(c2=O)CCCCC3)cc1`, the melting point lay within 240 to 242 °C. The figure for `O=C(NCc1cccc(O)c1)c1c[nH]c2c(c1=O)CCCC2` is 133 to 136 °C. With `O=C(Nc1ccsc1)c1c[nH]c2c(c1=O)CCCC2`, the melting point was 321 to 324 °C. The figure for `COc1ccccc1CNC(=O)c1c[nH]c2c(c1=O)CCCC2` is 217 to 219 °C; for `O=C(Nc1ccc(F)cc1F)c1c[nH]c2c(c1=O)CCC2` it is 328 °C (dec.); for `CCOc1ccc(CNC(=O)c2c[nH]c3c(c2=O)CCCC3)cc1` it is 241 to 243 °C.

As to `O=C(Nc1cccs1)c1c[nH]c2c(c1=O)CCCC2`, the melting point is 306 °C (dec.). On to `O=C(Nc1ccccc1F)c1c[nH]c2c(c1=O)CCCC2`, for which the melting point is 241 to 244 °C. Turning to `O=C(Nc1ccccn1)c1c[nH]c2c(c1=O)CCC2`, the melting point was in the range of 294 to 295 °C. `O=C(Nc1ccc(OCCO)cc1)c1c[nH]c2c(c1=O)CCC2` registered a melting point of 220 to 222 °C. `O=C(Nc1c(F)cccc1F)c1c[nH]c2c(c1=O)CCC2`: the melting point was 297 °C (dec.). The figure for `COc1cccc(CNC(=O)c2c[nH]c3c(c2=O)CCC3)c1` is 204 to 205 °C; for `O=C(NCc1ccc(F)cc1)c1c[nH]c2c(c1=O)CCCC2` it is 278 to 280 °C; for `O=C(NCc1cccc(Cl)c1)c1c[nH]c2c(c1=O)CCCC2` it is 247 to 249 °C.

`COc1cccc(NC(=O)c2c[nH]c3c(c2=O)CCCC3)c1` came in with a melting point of 275 to 280 °C.

In turn, `O=C(NCc1cccs1)c1c[nH]c2c(c1=O)CCCC2` registered a melting point of 245 to 248 °C. The figure for `CCCCNC(=O)c1c[nH]c2c(c1=O)CCCCC2` is 138 to 143 °C. `COc1ccc(NC(=O)c2c[nH]c3c(c2=O)CCCC3)cc1` registered a melting point of 287 to 290 °C.

As for `COc1cccc(CNC(=O)c2c[nH]c3c(c2=O)CCCC3)c1`, the melting point fell in the range of 210 to 212 °C.

Turning to `COc1cccc(NC(=O)c2c[nH]c3c(c2=O)CCC3)c1`, the melting point is 320 °C (dec.). As to `CC(C)Oc1ccc(CNC(=O)c2c[nH]c3c(c2=O)CCC3)c(F)c1`, the melting point is 214 °C (dec.). The figure for `O=C(Nc1cccnc1)c1c[nH]c2c(c1=O)CCCC2` is 308 °C (dec.). The figure for `Cc1csc(NC(=O)c2c[nH]c3c(c2=O)CCCC3)n1` is 350 to 352 °C.

`O=C(Nc1ccccc1)c1c[nH]c2c(c1=O)CCC2` had a melting point of 295 to 296 °C. The figure for `O=C(Nc1ccccc1)c1c[nH]c2c(c1=O)CCCC2` is 299 to 300 °C; for `O=C(Nc1nccs1)c1c[nH]c2c(c1=O)CCC2` it is 305 °C (dec.); for `O=C(NCc1ccccc1F)c1c[nH]c2c(c1=O)CCCC2` it is 206 to 208 °C.

`O=C(NCc1ccc2c(c1)OCO2)c1c[nH]c2c(c1=O)CCCC2` displayed a melting point of 263 to 265 °C. The figure for `Cc1cccc(CNC(=O)c2c[nH]c3c(c2=O)CCCC3)c1` is 242 to 245 °C; for `O=C(NCc1ccccc1)c1c[nH]c2c(c1=O)CCCCC2` it is 224 to 226 °C; for `O=C(NCc1ccccc1)c1c[nH]c2c(c1=O)CCC2` it is 149 to 150 °C.

As to `O=C(NCc1ccc(F)cc1)c1c[nH]c2c(c1=O)CCCCC2`, the melting point was 219 to 222 °C. The figure for `O=C(NCc1cccc(F)c1)c1c[nH]c2c(c1=O)CCCC2` is 267 to 270 °C.

Source of the values: patent US6448259B1 (dated 2002).
